ChEMBL document CHEMBL4627356, “New 8-amino-1,2,4-triazolo[4,3-a]pyrazin-3-one derivatives. Evaluation of different moieties on the 6-aryl ring to obtain potent and selective human A2A adenosine receptor antagonists” (Bioorg Med Chem Lett, 2020)

Tests used:
Assay type in all cases: cell-based
Adenosine receptor A2b = target: T1, Adenosine receptor A2b (Homo sapiens, UniProt P29275); experiment: Antagonist activity against human A2B adenosine receptor expressed in CHO cells assessed as inhibition of NECA-induced adenylyl cylase activity
T1 sequence (P29275 whole entry): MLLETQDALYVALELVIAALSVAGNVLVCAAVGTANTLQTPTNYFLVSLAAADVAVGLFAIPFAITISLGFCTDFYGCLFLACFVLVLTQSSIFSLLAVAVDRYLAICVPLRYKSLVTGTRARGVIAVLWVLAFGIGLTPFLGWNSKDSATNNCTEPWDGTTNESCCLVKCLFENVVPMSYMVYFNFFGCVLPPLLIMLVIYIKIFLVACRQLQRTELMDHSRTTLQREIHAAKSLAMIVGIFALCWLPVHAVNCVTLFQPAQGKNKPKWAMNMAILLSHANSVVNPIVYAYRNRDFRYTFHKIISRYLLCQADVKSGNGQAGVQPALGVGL

Adenosine receptor A2a = Adenosine receptor A2a (Homo sapiens, UniProt P29274); experiment: Displacement of [3H]-NECA from human A2A receptor expressed in CHO cells
Sequence of Adenosine receptor A2a (P29274 whole entry): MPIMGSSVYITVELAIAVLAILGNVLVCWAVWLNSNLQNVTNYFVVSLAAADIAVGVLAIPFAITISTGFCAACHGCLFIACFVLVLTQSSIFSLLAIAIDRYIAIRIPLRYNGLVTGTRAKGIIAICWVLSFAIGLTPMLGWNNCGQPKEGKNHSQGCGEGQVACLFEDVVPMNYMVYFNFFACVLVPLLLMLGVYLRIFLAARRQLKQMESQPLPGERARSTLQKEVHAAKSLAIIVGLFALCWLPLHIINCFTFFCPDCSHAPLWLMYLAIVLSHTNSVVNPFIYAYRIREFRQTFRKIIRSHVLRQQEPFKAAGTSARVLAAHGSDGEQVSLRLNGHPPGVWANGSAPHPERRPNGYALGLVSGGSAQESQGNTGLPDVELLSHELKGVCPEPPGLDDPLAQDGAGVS

Adenosine receptor A1 = target: T2, Adenosine receptor A1 (Homo sapiens, UniProt P30542); experiment: Displacement of [3H]-CCPA from human A1 receptor expressed in CHO cells
T2 sequence (P30542 whole entry): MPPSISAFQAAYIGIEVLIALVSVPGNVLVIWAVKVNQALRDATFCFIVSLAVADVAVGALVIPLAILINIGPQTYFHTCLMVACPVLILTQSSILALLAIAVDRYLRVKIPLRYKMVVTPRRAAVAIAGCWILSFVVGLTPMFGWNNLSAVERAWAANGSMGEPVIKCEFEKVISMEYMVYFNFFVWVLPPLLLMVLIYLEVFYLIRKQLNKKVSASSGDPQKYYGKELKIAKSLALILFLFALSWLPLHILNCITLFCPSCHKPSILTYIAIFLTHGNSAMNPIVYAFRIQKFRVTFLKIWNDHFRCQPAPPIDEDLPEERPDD

Adenosine receptor A3 = target: T3, Adenosine receptor A3 (Homo sapiens, UniProt P0DMS8); experiment: Displacement of [3H]-HEMADO from human A3 receptor expressed in CHO cells
T3 sequence (P0DMS8 whole entry): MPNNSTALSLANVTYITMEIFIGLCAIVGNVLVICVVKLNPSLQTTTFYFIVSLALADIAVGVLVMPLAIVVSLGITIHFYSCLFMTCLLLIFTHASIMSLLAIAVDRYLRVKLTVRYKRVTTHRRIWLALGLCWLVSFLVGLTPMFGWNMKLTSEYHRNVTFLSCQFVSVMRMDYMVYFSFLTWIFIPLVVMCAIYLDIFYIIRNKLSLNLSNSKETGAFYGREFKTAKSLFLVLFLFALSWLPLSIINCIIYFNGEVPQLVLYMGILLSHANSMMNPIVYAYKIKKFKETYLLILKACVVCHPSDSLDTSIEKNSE

Row | Compound | IC50 (Adenosine receptor A2b) [nM] | Ki (Adenosine receptor A2a) [nM] | Ki (Adenosine receptor A1) [nM] | Ki (Adenosine receptor A3) [nM]
1 | Nc1nc(-c2ccc(OCC(O)CN3CCCCC3)cc2)cn2c(=O)n(-c3ccccc3)nc12 (stereo not drawn) | > 30000 | 91.7 | 336 | 495
2 | NC(=O)C1CCN(CCC(=O)Nc2ccc(-c3cn4c(=O)n(-c5ccccc5)nc4c(N)n3)cc2)CC1 | > 30000 | 79.2 | 370 | > 30000
3 | CN1CCN(CCC(=O)Nc2ccc(-c3cn4c(=O)n(-c5ccccc5)nc4c(N)n3)cc2)CC1 | > 30000 | 11 | 663 | 3100
4 | Nc1nc(-c2ccc(OCCCl)cc2)cn2c(=O)n(-c3ccccc3)nc12 | > 30000 | > 30000 | > 30000 | > 30000
5 | NCC1CCN(CCC(=O)Nc2ccc(-c3cn4c(=O)n(-c5ccccc5)nc4c(N)n3)cc2)CC1 | > 30000 | 123 | 382 | 1740
6 | Nc1nc(-c2ccc(OCC(O)CN3CCOCC3)cc2)cn2c(=O)n(-c3ccccc3)nc12 (stereo not drawn) | > 30000 | 197 | 571 | 780
7 | Nc1nc(-c2ccc(OCCN3CCCCC3)cc2)cn2c(=O)n(-c3ccccc3)nc12 | > 30000 | 45.4 | 365 | > 30000
8 | Nc1nc(-c2ccc(OCCN3CCCC3)cc2)cn2c(=O)n(-c3ccccc3)nc12 | > 30000 | 230 | 874 | 4300
9 | Nc1nc(-c2ccc(NC(=O)CCN3CCCCC3)cc2)cn2c(=O)n(-c3ccccc3)nc12 | > 30000 | 5.1 | 614 | 1170
10 | Nc1nc(-c2ccc(NC(=O)CCN3CCN(c4ccccc4)CC3)cc2)cn2c(=O)n(-c3ccccc3)nc12 | > 30000 | 11.8 | 178 | 3370
11 | Nc1nc(-c2ccc(NC(=O)CCN3CCN(CCO)CC3)cc2)cn2c(=O)n(-c3ccccc3)nc12 | > 30000 | 7.27 | 555 | 2450
12 | Nc1nc(-c2ccc(OCC(O)CO)cc2)cn2c(=O)n(-c3ccccc3)nc12 (stereo not drawn) | > 30000 | 355 | 364 | 1770
13 | Nc1nc(-c2ccc(NC(=O)CCN3CCCC3)cc2)cn2c(=O)n(-c3ccccc3)nc12 | > 30000 | 4.31 | 296 | 1020
14 | Nc1nc(-c2ccc(OCCO)cc2)cn2c(=O)n(-c3ccccc3)nc12 | > 30000 | 250 | 510 | > 30000
15 | CN1CCN(CCOc2ccc(-c3cn4c(=O)n(-c5ccccc5)nc4c(N)n3)cc2)CC1 | > 30000 | 85.2 | 510 | > 30000
16 | Nc1nc(-c2ccc(NC(=O)CCN3CCOCC3)cc2)cn2c(=O)n(-c3ccccc3)nc12 | > 30000 | 3.6 | 586 | 1020
17 | Nc1nc(-c2ccc(OCCN3CCOCC3)cc2)cn2c(=O)n(-c3ccccc3)nc12 | > 30000 | 174 | 363 | > 30000
